Source: paper PMC11685127, “Pharmacokinetic/pharma-codynamic study of pralurbactam (FL058) combined with meropenem in a neutropenic murine thigh infection model” (Frontiers in Microbiology, 2024)
Read-outs that look alike come from different tables or passages of the source. Each block holds one molecule with its values, some of them ahead of it.

Columns and labels:
Escherichia coli [1] = test: Neutropenic murine thigh infection model, PK/PD Emax fitting; assay type: in vivo; conditions: 50 mg/kg meropenem alone q2h (without pralurbactam); strains 18-W40-096 and ATCC BAA-2452
Description: (§1) Mice (SPF grade, female, 25–30 g, 6–7 weeks) were provided by Beijing Huafukang Biotechnology Co. The animal study was reviewed and approved by the Animal Ethics Committee of State Key Laboratory of Biotherapy, Sichuan University (approval letter No.: 20190923035). All experimental animals from the study were intraperitoneally injected with cyclophosphamide (solution using 0.9% sodium chloride injection to achieve a concentration of 15 mg/ml) at a dose of 150 mg/kg at 4 days and 1 day prior to the day of infection to form immunocompromised mouse models. The hair on both thighs of the mice was shaved off 2 h before inoculation. The injection site was disinfected with 75% alcohol before intramuscular injection and dried with skimmed cotton. The mouse was challenged by inoculum of 1 × 10^8 CFU/ml of the test strain via injection of 50 μl of bacterial solution into both thighs. The time was referred to as t = 0 h, 2 h after the mice were infected. The control mice were euthanized at this time to record the initial bacterial colonies by taking the thigh muscle. The specific dosage of pralurbactam or meropenem for each dosing regimen was intraperitoneally injected (t = 0 h). At 26 h after the mice were infected (t = 24 h), the mice (experimental group) in each dosage cohort were euthanized to record the bacterial load to calculate CFU change (Δlog10 CFU).

K. pneumoniae = test: Susceptibility testing (MIC); assay type: cell-based; conditions: drug alone
Excerpt: (§2) The study used a total of […] strains of KPC-, NDM-, or OXA-producing Enterobacterales (three strains of K. pneumoniae and four strains of E. coli), which were provided by Microbiology Division, Institute of Antibiotics, Huashan Hospital, Fudan University. Quality control strains are selected for each bacteria.
(§3) Supplementary Table 1 Susceptibility testing results of meropenem alone, pralurbactam alone, or meropenem with FL058 in combination against K. pneumoniae and E. coli

E. coli = test: Susceptibility testing (MIC); assay type: cell-based; conditions: drug alone
Excerpt: as §2, §3

[2] = human, in vivo, cited from earlier work
[3] = tested on: class A, C, and D β-lactamases; parameters: method as in Sharma et al., 2016; conditions: ref Sharma et al., 2016; cited from earlier work
[4] = Free fraction in in vitro mouse plasma; assay type: in vitro ADME
Escherichia coli [5] = conditions: cited from earlier work
Klebsiella pneumoniae = test: Neutropenic murine thigh infection model, PK/PD Emax fitting; assay type: in vivo; conditions: fixed 100 mg/kg q2h of meropenem; strains 17-R1-16, 20-W2-70, ATCC BAA-1705
Description: as §1

[6] = Single-dose intraperitoneal PK of pralurbactam in mice plasma (UPLC-MS/MS, one-compartment model, population PK); assay type: in vivo; conditions: for Dose proportionality of Cmax or AUCinf (PK linearity): 5-500 mg/kg ip, non-compartmental regression analysis
Excerpt: The ultra-high performance liquid chromatography-tandem mass spectrometry (UPLC-MS/MS) system consisted of an LC-30A UPLC (Shimadzu Corporation, Japan) equipped with an Atlantis® T3 (3 μm, 2.1 × 100 mm) column, liquidity, and the cleaning solution mixed with formic acid, ammonium acetate, and acetonitrile, an API5500 mass spectrometer (AB SCIEX, USA). The retention times of chromatographic peaks and mass-to-charge ratios were obtained by MRM scanning pralurbactam (m/z 383.2 → 303.0), meropenem (m/z 384.1 → 141.2), internal standards pralurbactam-D4 (m/z 387.3 → 307.1), and meropenem-D6 (m/z 390.1 → 147.2) for peak identification. The drug concentration in the samples was calculated using Watson LIMS (version 7.5).
The UPLC-MS/MS method used to measure pralurbactam and meropenem concentrations in mice plasma was validated accurately in terms of selectivity, interaction, matrix effect, calibration curve, linearity, precision, accuracy, recovery, and stability. […] At this LLOQ level, the intra- and inter-assay precision was 3.5%–9.0% and 6.3% for pralurbactam, 5.0%–10.7% and 14.3% for meropenem. The overall recovery of pralurbactam and meropenem was 81.2% and 58.6%, respectively, and the corresponding coefficient of variation (CV) was 8.0% and 5.4%. This assay method was applied to quantify pralurbactam and meropenem for PK study.
The administration method for pralurbactam or meropenem (dissolved in sterile water) is single-dose intraperitoneal injection. […] Five mice were randomly selected for anesthesia and orbital blood sampling at each time-point (0.083, 0.25, 0.5, 1, 2, 3, 4, and 6 h) after dosing. A blood sample (600–800 μl) was obtained from the mouse immediately. Each mouse selected for blood sampling at each time point was euthanized immediately. The concentrations of pralurbactam and meropenem in plasma samples were determined using the validated UPLC-MS/MS method. PK parameters (including non-compartmental parameter linear fitting and compartmental simulation) of pralurbactam and meropenem in plasma were calculated using Phoenix WinNonlin (version 8.1, Certara Corporation). The compartmental PK parameters of pralurbactam were used to calculate the fCmax, fAUC0–24, and %fT > CT. The free fraction of pralurbactam was 100% based on in vitro mouse plasma.
In this study, the PK parameters of pralurbactam were calculated for each dosage cohort using Phoenix WinNonlin software based on the mean plasma concentrations at each sampling point in mice. The mean values of the PK parameters were used to simulate the potential PK/PD indices. Another method, the PK parameters could be estimated by the population PK (PPK) model using NONMEM software based on the pooled plasma concentrations. The estimated typical values of Ke and V/F based on the population PK model of pralurbactam were generally consistent with the classical mean values of Ke (PPK: 2.34 h^1 vs. classical PK: 2.55 h^1) and V/F (PPK: 0.719 L vs. classical PK: 0.72 L).

[7] = mean of all dosage cohorts, classical one-compartment PK
[8] = population PK (PPK) model, NONMEM, typical value, pooled plasma concentrations
[9] = pralurbactam 5 mg/kg ip single dose, alone, one-compartment model
[10] = pralurbactam 50 mg/kg ip single dose, alone, one-compartment model
[11] = pralurbactam 50 mg/kg ip, combined with meropenem 100 mg/kg, one-compartment model
[12] = pralurbactam 250 mg/kg ip, combined with meropenem 100 mg/kg, one-compartment model
[13] = pralurbactam 500 mg/kg ip single dose, alone, one-compartment model

MIC (K. pneumoniae; 17-R1-16 (KPC-2, CTX-M-14)): > 64 µg/mL
MIC (K. pneumoniae; 20-W2-70 (OXA-48)): 32 µg/mL
MIC (K. pneumoniae; ATCC BAA-1705 (KPC-2)): 16 µg/mL
MIC (E. coli; 18-W32-020 (NDM-5)): 32 µg/mL
MIC (E. coli; 18-W39-088 (NDM-1)): > 64 µg/mL
MIC (E. coli; 18-W40-096 (NDM-1)): 64 µg/mL
MIC (E. coli; ATCC BAA-2452 (NDM-1)): 32 µg/mL
Structure (SMILES): C[C@@H](O)[C@H]1C(=O)N2C(C(=O)O)=C(S[C@@H]3CN[C@H](C(=O)N(C)C)C3)[C@H](C)[C@H]12 [Meropenem]
Growth inhibition in thigh model (Escherichia coli [1]): significant growth inhibition

Structure (SMILES): N=C(N)NOCCONC(=O)[C@@H]1CC[C@@H]2CN1C(=O)N2OS(=O)(=O)O [Pralurbactam]
%fT > 1 mg/L ([2]; iv): 86%
Safety, tolerance and PK profiles [2]: good safety, tolerance, and PK profiles
Activity against β-lactamases in vitro [3]: active
Free fraction [4]: 100%
Activity of pralurbactam alone (Escherichia coli [5]; ref Huang et al., 2024a): partial activity
Inhibitory effect of pralurbactam alone (Escherichia coli [5]; ref in vitro susceptibility study (to be published)): notable inhibitory effects
Pralurbactam dose in the combination that inhibits growth of all test strains (Klebsiella pneumoniae): at least 25 mg/kg
%fT > 1 mg/L ([6]; 50 mg/kg q2h pralurbactam intraperitoneally in mice): 88%
Dose proportionality of Cmax or AUCinf (PK linearity) [6]: linear
Dose proportionality of Cmax or AUCinf (PK linearity) ([6]; listed as pralurbactam): dose proportional
Ka [6, 7]: 50.2 h^1
Ke [6, 7]: 2.55 h^1
V/F [6, 7]: 0.72 L
Ka ([6]; median value of dosage cohorts, classical PK): 26.0 h^1
Ka ([6]; population PK (PPK) model, NONMEM, estimate): 29.1 h^1
Ke [6, 8]: 2.34 h^1
V/F [6, 8]: 0.719 L
Ka [6, 9]: 27.4 h^1
Ke [6, 9]: 2.24 h^1
V/F [6, 9]: 0.77 L
Ka [6, 10]: 13.7 h^1
Ke [6, 10]: 3.83 h^1
V/F [6, 10]: 0.55 L
Ka [6, 11]: 24.5 h^1
Ke [6, 11]: 2.11 h^1
V/F [6, 11]: 0.79 L
Ka [6, 12]: 26.0 h^1
Ke [6, 12]: 1.93 h^1
V/F [6, 12]: 0.91 L
Ka [6, 13]: 159.4 h^1
Ke [6, 13]: 2.64 h^1
V/F [6, 13]: 0.57 L
MIC (K. pneumoniae; 17-R1-16 (KPC-2, CTX-M-14)): > 64 µg/mL
MIC (K. pneumoniae; 20-W2-70 (OXA-48)): 8 µg/mL
MIC (K. pneumoniae; ATCC BAA-1705 (KPC-2)): 4 µg/mL
MIC (E. coli; 18-W32-020 (NDM-5)): 2 µg/mL
MIC (E. coli; 18-W39-088 (NDM-1)): 4 µg/mL
MIC (E. coli; 18-W40-096 (NDM-1)): 4 µg/mL
MIC (E. coli; ATCC BAA-2452 (NDM-1)): 4 µg/mL
